Laboratory results published in patent US9833497B2, “Human originated EGF domain proteins and use of the same” (CHENGDU SOURCEBIO LIMITED-LIABILITY COMPANY, priority 2013, dated 2017).

Experiments:
Format in all cases: cell-based
[1] = tested on: Citrobacter diversus; assay: MIC against Gram-negative bacteria: Citrobacter diversus; details: for MIC against C. diversus: 96-well plate, 37° C., 10 h; for MIC against C. diversus / MIC C. diversus / MIC (μg/mL) C. diversus: 5×10^5 CFU/mL; for MIC C. diversus: two-fold serial dilution
In short: (§1)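 Bacteria grown in LB at 37° C with shaking to McFarland 0.5, pelleted and resuspended in fresh LB, then seeded at 5×10^5 CFU/mL per well. Purified recombinant human EGF domain proteins were two-fold serially diluted in triplicate and plates shaken at 37° C, 175 rpm. MIC is the lowest protein concentration with no bacterial growth.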

[2] = tested on: E. coli DH5α; assay: Antibacterial activity: MIC and growth curve against E. coli DH5α in 96-well plate; details: minimal inhibitory concentration against E. coli DH5α; 96-well plate, 5×10^5 CFU/mL, 37° C., judged after 8 h
In short: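 MIC taken as lowest protein level with no bacterial growth, tracked by A600 every 30 min during 37 °C, 175 rpm culture. Two-fold protein series 50-12.5 μg/mL final, triplicate wells, against 5×10^5 CFU/mL of LB-washed mid-log cells.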

[3] = tested on: Serratia marcescens; assay: MIC against Gram-negative bacteria: Serratia marcescens; details: for MIC against S. marcescens: 96-well plate, 37° C., 10 h; for MIC against S. marcescens / MIC S. marcescens / MIC (μg/mL) S. marcescens: 5×10^5 CFU/mL; for MIC S. marcescens: two-fold serial dilution
In short: as §1

[4] = tested on: Klebsiella pneumonia; assay: MIC against Gram-negative bacteria: Klebsiella pneumonia; details: for MIC against K. pneumonia: 96-well plate, 37° C., 10 h; for MIC against K. pneumonia / MIC K. pneumonia / MIC (μg/mL) K. pneumonia: 5×10^5 CFU/mL; for MIC K. pneumonia: two-fold serial dilution
In short: as §1

[5] = tested on: E. coli BL21; assay: MIC against Gram-negative bacteria: E. coli BL21; details: for MIC against E. coli BL21: 96-well plate, 37° C., 10 h; for MIC against E. coli BL21 / MIC E. coli BL21 / MIC (μg/mL) E. coli BL21: 5×10^5 CFU/mL; for MIC E. coli BL21: two-fold serial dilution
In short: as §1

[6] = tested on: Aeromonas hydrophila; assay: MIC against Gram-negative bacteria: Aeromonas hydrophila; details: for MIC against A. hydrophila: 96-well plate, 37° C., 10 h; for MIC against A. hydrophila / MIC A. hydrophila / MIC (μg/mL) A. hydrophila: 5×10^5 CFU/mL; for MIC A. hydrophila: two-fold serial dilution
In short: as §1

[7] = tested on: Enterobacter cloacae; assay: MIC against Gram-negative bacteria: Enterobacter cloacae; details: for MIC against E. cloacae: 96-well plate, 37° C., 10 h; for MIC against E. cloacae / MIC E. cloacae / MIC (μg/mL) E. cloacae: 5×10^5 CFU/mL; for MIC E. cloacae: two-fold serial dilution
In short: as §1

[8] = tested on: Moraxella catarrhalis; assay: MIC against Gram-negative bacteria: Moraxella catarrhalis; details: for MIC against M. catarrhalis: 96-well plate, 37° C., 10 h; for MIC against M. catarrhalis / MIC M. catarrhalis / MIC (μg/mL) M. catarrhalis: 5×10^5 CFU/mL; for MIC M. catarrhalis: two-fold serial dilution
In short: as §1

[9] = tested on: Pseudomonas aeruginosa; assay: MIC against Gram-negative bacteria: Pseudomonas aeruginosa; details: for MIC against P. aeruginosa: 96-well plate, 37° C., 10 h; for MIC against P. aeruginosa / MIC P. aeruginosa / MIC (μg/mL) P. aeruginosa: 5×10^5 CFU/mL; for MIC P. aeruginosa: two-fold serial dilution
In short: as §1

[10] = tested on: Proteus vulgaris; assay: MIC against Gram-negative bacteria: Proteus vulgaris; details: for MIC against P. vulgaris: 96-well plate, 37° C., 10 h; for MIC against P. vulgaris / MIC P. vulgaris / MIC (μg/mL) P. vulgaris: 5×10^5 CFU/mL; for MIC P. vulgaris: two-fold serial dilution
In short: as §1

[11] = tested on: Proteus mirabilis; assay: MIC against Gram-negative bacteria: Proteus mirabilis; details: for MIC against P. mirabilis: 96-well plate, 37° C., 10 h; for MIC against P. mirabilis / MIC P. mirabilis / MIC (μg/mL) P. mirabilis: 5×10^5 CFU/mL; for MIC P. mirabilis: two-fold serial dilution
In short: as §1

[12] = C. diversus, 10 h cultivation at 37° C.
[13] = S. marcescens, 10 h cultivation at 37° C.
[14] = K. pneumonia, 10 h cultivation at 37° C.
[15] = E. coli BL21, 10 h cultivation at 37° C.
[16] = A. hydrophila, 10 h cultivation at 37° C.
[17] = E. cloacae, 10 h cultivation at 37° C.
[18] = M. catarrhalis, 10 h cultivation at 37° C.
[19] = P. aeruginosa, 10 h cultivation at 37° C.
[20] = P. vulgaris, 10 h cultivation at 37° C.
[21] = P. mirabilis, 10 h cultivation at 37° C.

Substance | MIC [2] | MIC C. diversus ([1]; 10 h cultivation at 37° C.) | MIC S. marcescens ([3]; 10 h cultivation at 37° C.) | MIC K. pneumonia ([4]; 10 h cultivation at 37° C.) | MIC E. coli BL21 ([5]; 10 h cultivation at 37° C.) | MIC A. hydrophila ([6]; 10 h cultivation at 37° C.) | MIC E. cloacae ([7]; 10 h cultivation at 37° C.) | MIC M. catarrhalis ([8]; 10 h cultivation at 37° C.) | MIC P. aeruginosa ([9]; 10 h cultivation at 37° C.) | MIC P. vulgaris ([10]; 10 h cultivation at 37° C.) | MIC P. mirabilis ([11]; 10 h cultivation at 37° C.) | MIC (μg/mL) C. diversus [1, 12] | MIC (μg/mL) S. marcescens [3, 13] | MIC (μg/mL) K. pneumonia [4, 14] | MIC (μg/mL) E. coli BL21 [5, 15] | MIC (μg/mL) A. hydrophila [6, 16] | MIC (μg/mL) E. cloacae [7, 17] | MIC (μg/mL) M. catarrhalis [8, 18] | MIC (μg/mL) P. aeruginosa [9, 19] | MIC (μg/mL) P. vulgaris [10, 20] | further results
PRT1331 (EIDPCADGLNGGCHEHATCKMTGPGKHKCECKSHYVGDGLNCE; listed as Homo sapiens) | 25 µg/mL | – | – | – | – | – | – | – | – | – | – | – | – | – | – | – | – | – | – | – | MIC against C. diversus ([1]; Citrobacter diversus): 25 µg/mL; MIC against S. marcescens ([3]; Serratia marcescens): 25 µg/mL; MIC against K. pneumonia ([4]; Klebsiella pneumonia): 12.5 µg/mL; MIC against E. coli BL21 ([5]; E. coli BL21): 50 µg/mL; MIC against A. hydrophila ([6]; Aeromonas hydrophila): 12.5 µg/mL; MIC against E. cloacae ([7]; Enterobacter cloacae): 50 µg/mL; MIC against M. catarrhalis ([8]; Moraxella catarrhalis): 50 µg/mL; MIC against P. aeruginosa ([9]; Pseudomonas aeruginosa): 25 µg/mL; MIC against P. vulgaris ([10]; Proteus vulgaris): 12.5 µg/mL; MIC against P. mirabilis ([11]; Proteus mirabilis): 25 µg/mL
PRT1027 (PGNPCYDGSHMCDTTARCHPGTGVDYTCECASGYQGDGRNCV; listed as Homo sapiens) | 12.5 µg/mL | – | – | – | – | – | – | – | – | – | – | – | – | – | – | – | – | – | – | – | MIC [1, 12]: 50 µg/mL; MIC [3, 13]: 50 µg/mL; MIC [4, 14]: 25 µg/mL; MIC [5, 15]: 25 µg/mL; MIC [6, 16]: 12.5 µg/mL; MIC [7, 17]: 50 µg/mL; MIC [8, 18]: 12.5 µg/mL; MIC [9, 19]: 12.5 µg/mL; MIC [10, 20]: 12.5 µg/mL; MIC [11, 21]: 50 µg/mL
PRT1059 (SDSECPLSHDGYCLHDGVCMYIEALDKYACNCVVGYIGERCQ; listed as Homo sapiens) | 50 µg/mL | 50 µg/mL | 12.5 µg/mL | 12.5 µg/mL | 12.5 µg/mL | 25 µg/mL | 25 µg/mL | 12.5 µg/mL | 50 µg/mL | 25 µg/mL | 12.5 µg/mL | – | – | – | – | – | – | – | – | – | –
PRT757 (RINYCALNKPGCEHECVNMEESYYCRCHRGYTLDPNGKTCS; listed as Homo sapiens) | 50 µg/mL | – | – | – | – | – | – | – | – | – | – | 12.5 µg/mL | 50 µg/mL | 12.5 µg/mL | 12.5 µg/mL | 50 µg/mL | 25 µg/mL | 50 µg/mL | 50 µg/mL | 25 µg/mL | MIC (μg/mL) P. mirabilis [11, 21]: 12.5 µg/mL
PRT1140 (DVKDCLFLSCQDYGDCEDMVNNFRCICRPGFSGSLCE; listed as Homo sapiens) | 25 µg/mL | 12.5 µg/mL | 100 µg/mL | 50 µg/mL | 50 µg/mL | 50 µg/mL | 12.5 µg/mL | 50 µg/mL | 12.5 µg/mL | 50 µg/mL | 12.5 µg/mL | – | – | – | – | – | – | – | – | – | –
PRT866 (CQCHGHAARCAARARPPRCHCRHHTTGPGCESCRPSHRDWPWRPATPRHPHPCLP; listed as Homo sapiens) | 25 µg/mL | – | – | – | – | – | – | – | – | – | – | 12.5 µg/mL | 12.5 µg/mL | 12.5 µg/mL | 12.5 µg/mL | 12.5 µg/mL | 12.5 µg/mL | 12.5 µg/mL | 25 µg/mL | 25 µg/mL | MIC (μg/mL) P. mirabilis [11, 21]: 12.5 µg/mL
PRT1154 (DGTACGYNTCRNGGECTVNGTTFSCRCLPDWAGNTCN; listed as Homo sapiens) | 50 µg/mL | 12.5 µg/mL | 12.5 µg/mL | 12.5 µg/mL | 12.5 µg/mL | 100 µg/mL | 25 µg/mL | 12.5 µg/mL | 50 µg/mL | 12.5 µg/mL | 12.5 µg/mL | – | – | – | – | – | – | – | – | – | –
PRT521 (CNCNSFGSKSFDCEESGQCWCQPGVTGKKCDRCAHGYFNFQEGGCTA; listed as Homo sapiens) | 50 µg/mL | – | – | – | – | – | – | – | – | – | – | – | – | – | – | – | – | – | – | – | MIC against C. diversus [1]: 12.5 µg/mL; MIC against S. marcescens [3]: 12.5 µg/mL; MIC against K. pneumonia [4]: 25 µg/mL; MIC against E. coli BL21 [5]: 25 µg/mL; MIC against A. hydrophila [6]: 25 µg/mL; MIC against E. cloacae [7]: 50 µg/mL; MIC against M. catarrhalis [8]: 25 µg/mL; MIC against P. aeruginosa [9]: 12.5 µg/mL; MIC against P. vulgaris [10]: 25 µg/mL; MIC against P. mirabilis [11]: 50 µg/mL
PRT165 (DVRACSSAPCANNGTCVSLDDGLYECSCAPGYSGKDCQ; listed as Homo sapiens) | 12.5 µg/mL | – | – | – | – | – | – | – | – | – | – | 25 µg/mL | 12.5 µg/mL | 12.5 µg/mL | 12.5 µg/mL | 25 µg/mL | 25 µg/mL | 25 µg/mL | 25 µg/mL | 25 µg/mL | MIC (μg/mL) P. mirabilis [11, 21]: 12.5 µg/mL
PRT1286 (PKSPCEGTECQNGANCVDQGNRPVCQCLPGFGGPECE; listed as Homo sapiens) | 12.5 µg/mL | – | – | – | – | – | – | – | – | – | – | – | – | – | – | – | – | – | – | – | MIC against C. diversus ([1]; Citrobacter diversus): 12.5 µg/mL; MIC against S. marcescens ([3]; Serratia marcescens): 12.5 µg/mL; MIC against K. pneumonia ([4]; Klebsiella pneumonia): 50 µg/mL; MIC against E. coli BL21 ([5]; E. coli BL21): 50 µg/mL; MIC against A. hydrophila ([6]; Aeromonas hydrophila): 50 µg/mL; MIC against E. cloacae ([7]; Enterobacter cloacae): 12.5 µg/mL; MIC against M. catarrhalis ([8]; Moraxella catarrhalis): 25 µg/mL; MIC against P. aeruginosa ([9]; Pseudomonas aeruginosa): 12.5 µg/mL; MIC against P. vulgaris ([10]; Proteus vulgaris): 25 µg/mL; MIC against P. mirabilis ([11]; Proteus mirabilis): 50 µg/mL
